# Data as given in the NIST ThermoML archive (doi:10.1021/je025631i).
# Numbers after ± are expanded uncertainties.
# Experiments:
# [1] = refractive index (Na D-line) (dimensionless); conditions: 293.15 K; 101.33 kPa; Liquid; Abbe refractometer
# [2] = Liquid; for mass density: 293.15 K, 101.33 kPa, Vibrating tube method
refractive index [1],mass density [2],vapor or sublimation pressure ([2]; 348.15 K),vapor or sublimation pressure ([2]; 356.74 K),vapor or sublimation pressure ([2]; 363.15 K),vapor or sublimation pressure ([2]; 376.95 K),vapor or sublimation pressure ([2]; 383.15 K),vapor or sublimation pressure ([2]; 398.79 K),vapor or sublimation pressure ([2]; 382.79 K),vapor or sublimation pressure ([2]; 405.54 K),vapor or sublimation pressure ([2]; 429.34 K),SMILES
1.3973 ± 0.0003,702.44 ± 0.18 kg/m3,19.31 ± 0.37 kPa,26.66 ± 0.3 kPa,33.52 ± 0.42 kPa,53.33 ± 0.36 kPa,64.25 ± 0.52 kPa,101.3 ± 0.5 kPa,,,,CCCCCCCC [octane]
1.4657 ± 0.0003,858.06 ± 0.16 kg/m3,7.35 ± 0.33 kPa,,13.32 ± 0.35 kPa,,26.98 ± 0.4 kPa,,26.66 ± 0.34 kPa,53.33 ± 0.41 kPa,101.32 ± 0.5 kPa,CC1=CCC2CC1C2(C)C (stereo unspecified) [2-pinene]
